The values that follow come from patent US20080051418A1, “Arylalkanoic Acid Derivative” (priority 2004, published 2008).

Like-named read-outs stand apart in the source and are kept apart here.

A word on the EC50: it is the concentration that produces a half-maximal response. Lower therefore signals a more potent agent. Broadly, the melting point is the temperature of the solid-liquid transition.

In data set [1] the test system is KKA^y mice. Put plainly: Blood glucose and blood lipid (triglyceride) lowering action in mice. The format is in vivo. Particulars: Mus musculus, po, 96 h, 4 days, non-administration group = 100%; for inhibition in vivo at 0.005 %: 0.005% in powder diet; for inhibition in vivo at 0.01 %: 0.01% in powder diet (compound of Example 105). The source says: The test compound was mixed with a powder diet (CE-2, CLEA JAPAN, INC.) at a proportion of 0.005% (0.01% for the compound of Example 105) and freely given to KKA^y mice (9 to 12-week-old, 5 mice per group) which are obesity-insulin independent diabetes mellitus (type-2 diabetes) models, for 4 days. During this period, water was freely given. The blood was drawn from the orbital venous plexus. Glucose and triglyceride in the plasma separated from the blood were quantitated using L Type Wako Glu2 (Wako Pure Chemical Industries, Ltd.) and L Type Wako TG•H (Wako Pure Chemical Industries, Ltd.), respectively, according to an enzyme method.

Data set [2] relates to KKA^y mice. Put plainly: Plasma antiatherogenic index increasing action in mice. Format: in vivo. Particulars: Mus musculus, po, 96 h, 4 days, increase rate of (HDL cholesterol/total cholesterol)×100, non-administration group = 100%; for change in vivo at 0.005 %: 0.005% in powder diet. The procedure:
The test compound was mixed with a powder diet (CE-2, CLEA JAPAN, INC.) at a proportion of 0.005% (0.01% for the compound of Example 105) and freely given to KKA^y mice (9 to 12-week-old, 5 mice per group) which are obesity-insulin independent diabetes mellitus (type-2 diabetes) models, for 4 days. During this period, water was freely given. The blood was drawn from fundus and the components were measured using the plasma separated from the blood. The total cholesterol was quantified using L Type Wako cholesterol (Wako Pure Chemical Industries, Ltd.). In addition, an HDL cholesterol precipitation reagent (Wako Pure Chemical Industries, Ltd.) was added to a part of the plasma to allow precipitation of a non-HDL lipoprotein, and the cholesterol (HDL cholesterol) of the supernatant was measured. The plasma antiatherogenic index [(HDL cholesterol/total cholesterol)×100] was calculated from these cholesterol values.

Another data set concerns the target T1, PPARγ-RXRα heterodimer (Homo sapiens, UniProt P37231).
T1 construct: expressed in transfected cells; host or cells: CHO-K1
T1 sequence (P37231 1-505): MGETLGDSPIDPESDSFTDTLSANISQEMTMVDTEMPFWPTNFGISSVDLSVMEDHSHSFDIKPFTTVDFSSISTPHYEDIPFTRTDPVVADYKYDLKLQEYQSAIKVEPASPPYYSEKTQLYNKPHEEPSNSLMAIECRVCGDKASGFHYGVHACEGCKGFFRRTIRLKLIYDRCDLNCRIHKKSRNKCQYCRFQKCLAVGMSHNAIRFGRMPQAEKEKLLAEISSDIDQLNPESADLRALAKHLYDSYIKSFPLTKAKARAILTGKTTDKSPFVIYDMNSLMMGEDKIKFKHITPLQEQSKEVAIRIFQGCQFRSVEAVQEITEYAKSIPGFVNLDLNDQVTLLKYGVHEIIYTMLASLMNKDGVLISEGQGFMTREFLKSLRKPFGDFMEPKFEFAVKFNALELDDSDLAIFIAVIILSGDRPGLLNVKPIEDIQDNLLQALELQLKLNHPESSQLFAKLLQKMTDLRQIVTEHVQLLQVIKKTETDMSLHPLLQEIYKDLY
T1 sequence (P19793 1-462 partner): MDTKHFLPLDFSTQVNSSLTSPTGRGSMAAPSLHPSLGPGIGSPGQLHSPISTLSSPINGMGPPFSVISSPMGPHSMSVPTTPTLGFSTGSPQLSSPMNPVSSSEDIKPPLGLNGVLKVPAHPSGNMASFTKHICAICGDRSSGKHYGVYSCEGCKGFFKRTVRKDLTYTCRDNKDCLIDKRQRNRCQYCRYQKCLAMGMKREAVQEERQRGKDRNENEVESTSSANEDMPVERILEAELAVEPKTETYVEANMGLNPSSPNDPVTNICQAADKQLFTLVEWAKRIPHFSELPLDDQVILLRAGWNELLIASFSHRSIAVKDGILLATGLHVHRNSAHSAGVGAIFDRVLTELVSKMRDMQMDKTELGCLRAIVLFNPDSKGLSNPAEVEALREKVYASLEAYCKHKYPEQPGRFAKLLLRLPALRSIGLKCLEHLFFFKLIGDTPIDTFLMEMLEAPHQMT
Put plainly: PPARγ-RXRα heterodimer ligand activity (luciferase reporter). The format is cell-based. Particulars: PPARγ:RXRα:4ERPP/CHO-K1 cells, 18-24 hr, concentration showing 50% of the maximum induction rate. In a few lines: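 CHO-K1 cells carrying PPARγ, RXRα and a 4ERPP luciferase reporter, exposed to compound 18–24 h at 37 °C in Ham F12 with 0.1% fatty acid-free BSA. Luciferase induction expressed relative to untreated cells (= 1). EC50 is concentration giving 50% of maximal induction.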
Background: Reporter assays use an easily measured gene product as a stand-in for the process of interest.

A further data set concerns the target T2, PPARδ-RXRα heterodimer (Homo sapiens, UniProt Q03181).
T2 construct: expressed in transfected cells
T2 sequence (Q03181 1-441): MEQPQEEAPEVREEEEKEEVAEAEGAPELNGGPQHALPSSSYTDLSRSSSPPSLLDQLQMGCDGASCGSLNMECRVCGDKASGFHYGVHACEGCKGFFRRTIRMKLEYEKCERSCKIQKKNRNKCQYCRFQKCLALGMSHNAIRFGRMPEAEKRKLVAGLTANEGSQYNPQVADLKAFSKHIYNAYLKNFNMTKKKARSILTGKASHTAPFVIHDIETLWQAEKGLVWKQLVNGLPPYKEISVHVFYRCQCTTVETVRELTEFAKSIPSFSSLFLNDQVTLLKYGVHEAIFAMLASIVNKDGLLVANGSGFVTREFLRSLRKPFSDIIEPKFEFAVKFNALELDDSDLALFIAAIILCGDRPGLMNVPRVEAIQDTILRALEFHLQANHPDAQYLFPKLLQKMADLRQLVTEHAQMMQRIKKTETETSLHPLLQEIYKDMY
T2 sequence (P19793 1-462 partner): T1 sequence (P19793 1-462 partner)
The data set is described as follows: PPARδ-RXRα heterodimer ligand activity (luciferase reporter). The format is cell-based. Particulars: transformant of Reference Example 9a of WO03/099793, 36-48 hr, concentration showing 50% of the maximum induction rate. The procedure:
The transformant described in Reference Example 9a of WO03/099793 was suspended in a DMEM medium [manufactured by Life technologies, Inc., US] containing 0.1% fatty acid-free bovine serum albumin (BSA) (manufactured by Wako Pure Chemical Industries, Ltd.), and inoculated to each well of a 96 well white plate [manufactured by Corning Coster Corporation, US] by 80 μl to 1×10^4 cells/well. Then, the test compound (20 μl) was added, and cultured under the conditions of 37° C., 5% CO2 for 36-48 hr. The medium was removed from the 96 well white plate, 40 μl of PicaGene LT 7.5 (manufactured by Wako Pure Chemical Industries, Ltd.) diluted 2-fold with HBSS (HANKS' BALANCED SALT SOLUTION) [manufactured by BIO WHITTAKER, US] was added and, after stirring, the luciferase activity was determined using the 1420 ARVO Multilabel Counter [manufactured by PerkinElmer, US].
The induction rate was calculated from the luciferase activity of each test compound based on the luciferase activity of the test compound non-administration group as 1. The test compound concentration and the induction rate were analyzed by PRISM [manufactured by GraphPad Software, Inc., US] to calculate EC50 value (compound concentration showing 50% of the maximum value of induction rate) of the test compound.

Where [3] appears, read: lowering rate of plasma glucose, read-out: hypoglycemic action (%).
[4] abbreviates: lowering rate of plasma triglyceride, read-out: hypolipidemic action (%).

Regarding `COc1cccc(CC(=O)O)c1OCCCc1cc(OC(C)C)nn1Cc1ccc(Cl)cc1Cl` [Example 16, (2-{3-[1-(2,4-dichlorobenzyl)-3-isopropoxy-1H-pyrazol-5-yl]propoxy}-3-methoxyphenyl)acetic acid], the results for the inhibition in vivo at 0.005 % in the data set with KKA^y mice [1] (setting [3]) and in the data set on KKA^y mice [1] (setting [4]) were 57% and 28%, respectively. The change in vivo at 0.005 % in the data set on KKA^y mice [2] worked out at 13%. The EC50 on PPARγ-RXRα heterodimer worked out at 2.3 nM; at PPARδ-RXRα heterodimer, 14 nM.
In the case of `CCn1cc(CC(=O)O)c(OCCCc2cc(OC(C)C)nn2Cc2ccc(Cl)cc2Cl)n1` [Example 22, (3-{3-[1-(2,4-dichlorobenzyl)-3-isopropoxy-1H-pyrazol-5-yl]propoxy}-1-ethyl-1H-pyrazol-4-yl)acetic acid], the inhibition in vivo at 0.005 % was 49% in the data set with KKA^y mice [1] (setting [3]) and 53% with KKA^y mice [1] (setting [4]). Besides, the change in vivo at 0.005 % in the data set on KKA^y mice [2] was 12%. This compound also showed an EC50 at PPARγ-RXRα heterodimer of 15 nM.
For the compound `COc1cccc(CC(=O)O)c1OCCCc1cc(OC(C)C)nn1Cc1ccc(C(F)(F)F)cc1` [Example 51, [2-(3-{3-isopropoxy-1-[4-(trifluoromethyl)benzyl]-1H-pyrazol-5-yl}propoxy)-3-methoxyphenyl]acetic acid], the melting point lay within 116 to 117 °C. Also, the change in vivo at 0.005 % in the data set with KKA^y mice [2] turned out to be 15%. At PPARγ-RXRα heterodimer, this compound showed an EC50 of 39 nM.
The compound `CCCOc1cc(CCCOc2c(CC(=O)O)cccc2OC)n(Cc2ccccc2)n1` [Example 56, {2-[3-(1-benzyl-3-propoxy-1H-pyrazol-5-yl)propoxy]-3-methoxyphenyl}acetic acid] came in with a change in vivo at 0.005 % in the data set on KKA^y mice [2] of 12%.
`CCCOc1cc(CCCOc2c(CC(=O)O)cccc2OC)n(Cc2ccc(Cl)cc2Cl)n1` [Example 57, (2-{3-[1-(2,4-dichlorobenzyl)-3-propoxy-1H-pyrazol-5-yl]propoxy}-3-methoxyphenyl)acetic acid]: the change in vivo at 0.005 % in the data set on KKA^y mice [2] turned out to be 15%. Also, the results for the EC50 on PPARγ-RXRα heterodimer and at PPARδ-RXRα heterodimer were 1.4 nM and 21 nM, respectively.
Regarding `COc1ccccc1Cn1nc(OC(C)C)cc1CCCOc1c(CC(=O)O)cccc1OC` [Example 62, (2-{3-[3-isopropoxy-1-(2-methoxybenzyl)-1H-pyrazol-5-yl]propoxy}-3-methoxyphenyl)acetic acid], the inhibition in vivo at 0.005 % with KKA^y mice [1] (setting [3]) was 48%; in the data set with KKA^y mice [1] (setting [4]), 61%. Also, the change in vivo at 0.005 % in the data set on KKA^y mice [2] was 13%. This compound showed a concentration giving a half-maximal response (EC50) on PPARγ-RXRα heterodimer of 34 nM.
Regarding `COCOc1ccc(CCCOc2c(CC(=O)O)cccc2OC)c(Oc2ccc(C(F)(F)F)cn2)c1` [Example 105, {3-methoxy-2-[3-(4-(methoxymethoxy)-2-{[5-(trifluoromethyl)pyridin-2-yl]oxy}phenyl)propoxy]phenyl}acetic acid], the inhibition in vivo at 0.01 % in the data set with KKA^y mice [1] (setting [3]) and with KKA^y mice [1] (setting [4]) was 64% in each case. Moreover, the change in vivo at 0.01 % in the data set on KKA^y mice [2] (0.01% in powder diet (compound of Example 105)) worked out at 13%.
`COc1cccc(CC(=O)O)c1OCCCc1ccc(OC(C)C)cc1Oc1ccc(C(F)(F)F)cn1` [Example 107, {2-[3-(4-isopropoxy-2-{[5-(trifluoromethyl)pyridin-2-yl]oxy}phenyl)propoxy]-3-methoxyphenyl}acetic acid] showed a change in vivo at 0.005 % in the data set on KKA^y mice [2] of 13%.
Turning to `CCn1cc(CC(=O)O)c(OCCCc2ccc(OC(C)C)cc2Oc2ccc(C(F)(F)F)cn2)n1` [Example 108, {1-ethyl-3-[3-(4-isopropoxy-2-{[5-(trifluoromethyl)pyridin-2-yl]oxy}phenyl)propoxy]-1H-pyrazol-4-yl}acetic acid], the change in vivo at 0.005 % with KKA^y mice [2] worked out at 12%.
`COCOc1ccc(CCCOc2nn(C)cc2CC(=O)O)c(Oc2ncc(C(F)(F)F)cc2Cl)c1` [Example 111, (3-{3-[2-{[3-chloro-5-(trifluoromethyl)pyridin-2-yl]oxy}-4-(methoxymethoxy)phenyl]propoxy}-1-methyl-1H-pyrazol-4-yl)acetic acid] yielded a melting point of 122 to 123 °C. Also, the inhibition in vivo at 0.005 % in the data set on KKA^y mice [1] (setting [3]) was 64%. The inhibition in vivo at 0.005 % with KKA^y mice [1] (setting [4]) is 45%. In the data set with KKA^y mice [2], this compound displayed a change in vivo at 0.005 % of 11%. The compound further gave a 50% effective concentration (EC50) at PPARγ-RXRα heterodimer of 3.8 nM. Further, at PPARδ-RXRα heterodimer, the 50% effective concentration (EC50) worked out at 77 nM.
